# US6830761B1, “Composition comprising micro-encapsulated iron” (Ped-Med Ltd., priority 1998, dated 2004)
# System: anemic rats
# Test: hemoglobin-repletion test in anemic rats (relative bioavailability of iron)
# Type: in vivo, Sprague-Dawley rats
# Conditions: high iron diet, 20 mg/kg of diet, after 14 days of feeding
# Method: Male weanling Sprague-Dawley rats housed individually in stainless steel cages were fed a low-iron diet and de-ionized distilled water ad lib for 24 days. The low-iron diet contained no more than about 3 mg of iron per kg of diet. Following the 24 day depletion period, approximately 200 μl of blood was drawn from the tail vein of each rat for hemoglobin analysis. Anemic rats having hemoglobin values between 30 and 60 g/L were used in the study. The rats were housed individually in cages in a randomized block design.
substance,measurement,value
ferrous sulfate,mean hemoglobin response,31 g/L
